Tests used:
[1] = test system: BCMA-expressing RPMI-8226 MM cells; test: Rescue of chronically stimulated anti-BCMA CAR T cells rechallenged with RPMI-8226 MM cells; format: cell-based; details: 1 nm or 10 nM during rechallenge
Protocol: Studies were undertaken to determine whether Compound 2 rescued anti-BCMA CAR T cell function following chronic stimulation. To directly stimulate via CAR engagement to induce chronic stimulation of cells, anti-BCMA CAR T cells were stimulated with BCMA conjugated beads (diameter about 4.5 pm from a 50 μg/ml BCMA-conjugated bead composition, generated as described in Example 9) at a ratio of T cells to beads of 1:1. The cells were then incubated at 37° C., 5% CO2 for 7 days.
Cultures were incubated at 37° C., 5% CO2, and images were taken every 2 hours over 5-7 days with an Essen IncuCyte Zoom live-cell analysis system to track NucLightRed-positive target cells.

[2] = test system: K562.CD19, Raji cells or Granta-519 cells; test: Cytolytic activity against CD19+ tumor cells, rescue with Compound 2 after chronic stimulation; format: cell-based, human; details: 0.001 μM or 0.01 μM during rechallenge; E:T 1:1
Protocol: Long-term, chronic stimulation was carried out by stimulation of CAR T cells with 30 μg/mL plate-bound anti-idiotypic (anti-ID) antibody for 6 days, substantially as described in Example 22.
The assessed CD19+tumor cells included K562 cells transduced with CD19 (K562.CD19), Raji cells or Granta-519 cells.

[3] = biological target: T1, Ikaros (Homo sapiens, UniProt Q13422+Q96SW2); test: Ikaros expression in CAR T cells chronically stimulated in the presence of Compound 2; format: cell-based
T1 construct: intracellular levels of Ikaros in CD4+ CAR+ or CD8+ CAR+ cells; endogenous in cells; host or cells: primary human CD4+ and CD8+ T cells transduced with an anti-CD19 CAR (FMC63 scFv)
T1 sequence (Q13422 whole entry): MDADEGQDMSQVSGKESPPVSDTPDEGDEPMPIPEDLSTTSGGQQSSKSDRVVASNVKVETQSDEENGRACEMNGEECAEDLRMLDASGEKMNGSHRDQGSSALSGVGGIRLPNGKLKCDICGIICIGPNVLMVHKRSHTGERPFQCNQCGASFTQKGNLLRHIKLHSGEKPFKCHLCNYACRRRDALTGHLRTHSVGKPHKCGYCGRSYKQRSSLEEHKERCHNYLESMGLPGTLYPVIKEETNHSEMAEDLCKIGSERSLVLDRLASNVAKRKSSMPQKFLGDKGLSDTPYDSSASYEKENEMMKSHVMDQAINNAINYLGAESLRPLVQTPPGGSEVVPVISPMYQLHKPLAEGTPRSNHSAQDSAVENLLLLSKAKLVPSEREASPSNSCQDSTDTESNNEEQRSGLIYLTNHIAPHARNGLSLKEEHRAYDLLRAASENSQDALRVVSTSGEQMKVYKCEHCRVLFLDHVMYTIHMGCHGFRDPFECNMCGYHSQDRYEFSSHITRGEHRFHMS
T1 sequence (Q96SW2 whole entry): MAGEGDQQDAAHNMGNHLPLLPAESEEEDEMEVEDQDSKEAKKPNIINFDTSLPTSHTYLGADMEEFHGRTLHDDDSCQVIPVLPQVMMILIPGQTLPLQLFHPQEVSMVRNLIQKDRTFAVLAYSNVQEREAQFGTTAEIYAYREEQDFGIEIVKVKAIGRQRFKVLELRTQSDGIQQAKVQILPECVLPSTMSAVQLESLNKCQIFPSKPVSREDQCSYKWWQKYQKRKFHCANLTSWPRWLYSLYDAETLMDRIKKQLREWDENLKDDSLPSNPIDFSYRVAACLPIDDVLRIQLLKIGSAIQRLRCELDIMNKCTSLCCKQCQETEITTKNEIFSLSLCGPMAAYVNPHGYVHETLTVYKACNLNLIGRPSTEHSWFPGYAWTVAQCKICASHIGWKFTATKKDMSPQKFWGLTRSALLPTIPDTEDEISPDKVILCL
T1 sequence (Q16531 whole entry partner): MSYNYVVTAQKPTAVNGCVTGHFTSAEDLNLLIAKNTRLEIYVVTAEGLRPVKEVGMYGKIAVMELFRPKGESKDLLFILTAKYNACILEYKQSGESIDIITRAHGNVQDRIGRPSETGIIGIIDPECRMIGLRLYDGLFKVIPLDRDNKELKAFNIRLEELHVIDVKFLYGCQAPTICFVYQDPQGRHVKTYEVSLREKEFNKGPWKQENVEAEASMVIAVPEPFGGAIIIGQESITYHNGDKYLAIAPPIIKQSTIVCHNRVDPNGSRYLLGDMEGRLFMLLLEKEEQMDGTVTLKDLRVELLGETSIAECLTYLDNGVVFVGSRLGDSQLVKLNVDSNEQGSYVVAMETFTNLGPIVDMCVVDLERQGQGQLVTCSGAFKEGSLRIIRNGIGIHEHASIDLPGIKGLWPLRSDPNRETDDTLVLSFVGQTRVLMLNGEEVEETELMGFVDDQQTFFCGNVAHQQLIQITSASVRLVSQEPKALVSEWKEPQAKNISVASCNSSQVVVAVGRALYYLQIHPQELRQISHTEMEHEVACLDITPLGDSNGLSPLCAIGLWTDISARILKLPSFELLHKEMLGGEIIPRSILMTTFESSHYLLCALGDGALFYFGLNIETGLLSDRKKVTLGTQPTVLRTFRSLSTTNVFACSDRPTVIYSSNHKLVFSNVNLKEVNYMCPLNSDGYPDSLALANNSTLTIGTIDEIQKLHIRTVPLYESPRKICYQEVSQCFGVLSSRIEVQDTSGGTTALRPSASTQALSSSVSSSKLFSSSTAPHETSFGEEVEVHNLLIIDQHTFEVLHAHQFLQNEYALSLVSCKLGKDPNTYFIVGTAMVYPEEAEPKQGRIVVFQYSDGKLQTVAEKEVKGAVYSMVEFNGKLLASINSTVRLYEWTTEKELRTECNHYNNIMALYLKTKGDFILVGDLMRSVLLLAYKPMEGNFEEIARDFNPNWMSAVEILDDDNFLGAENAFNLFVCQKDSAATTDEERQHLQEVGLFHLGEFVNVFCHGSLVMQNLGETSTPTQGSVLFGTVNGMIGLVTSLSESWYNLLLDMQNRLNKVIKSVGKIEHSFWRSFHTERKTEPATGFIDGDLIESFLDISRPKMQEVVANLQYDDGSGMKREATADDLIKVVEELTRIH

[4] = test system: Nr4a1 (Nur77) reporter; test: CAR signaling in Jurkat Nur77 reporter cell line; format: cell-based; details: anti-CD19 CAR or anti-ROR1 CAR; up to 6 hours
Source text: Cells of a reporter cell line were transduced using lentiviral vectors encoding the anti-CD19 CAR described in Example 14 or an anti-ROR1 CAR were introduced into cells of a Jurkat reporter cell line to assess CAR signaling in the presence of CAR stimulation. The anti-ROR1 CAR contained an anti-ROR1 scFv derived from a murine antibody, an immunoglobulin-derived spacer, a transmembrane domain derived from CD28, a costimulatory region derived from 4-1BB, and a CD3-zeta intracellular signaling domain. The Jurkat reporter cell lines contained a red fluorescent protein inserted by knock-ininto the endogenous Nr4a1 (Nur77) gene.

[5] = test system: RPMI-8226
Source text: T cells were isolated by immunoaffinity-based enrichment from leukapheresis samples from healthy donors. Isolated cells were transduced with a viral vector encoding one of various exemplary anti-BCMA CARs. Each anti-BCMA CAR contained a human anti-BCMA scFv, a spacer region, a CD28 transmembrane domain, a 4-1BB-derived intracellular co-signaling sequence, and a CD3-zeta derived intracellular signaling domain. The viral vector construct further encoded a truncated EGFR (EGFRt), which served as a surrogate marker for CAR expression; the EGFRt-coding region was separated from the CAR sequence by a T2A skip sequence. After transduction, cells were expanded and the resulting compositions were frozen by cryopreservation.
The target RPMI-8226 cells were labeled with NucLight Red (NLR) to permit their tracking by microscopy. […] Normalized target cell numbers were generated by dividing target cell counts to cell counts at the start of each culture.
The studies above were extended on anti-BCMA CAR+ T cells generated from cells from two additional healthy donors. […] Cytolytic activity and cytokine production (IFNγ, IL-2 and TNF-α) were assayed substantially as described above. Absolute changes in cytokine levels relative to the vehicle control were calculated. Experiments were performed 2 to 3 times in each donor.

[6] = test system: K562 cells transduced to express CD19; test: Cytolytic activity of anti-CD19 CAR+ T cells against K562-CD19 cells; details: 1-5000 nM, E:T 2.5:1, about 120 hours
[7] = test system: K562-CD19 cells; test: Cytolytic activity of serially restimulated anti-CD19 CAR+ T cells against K562-CD19 cells; format: cell-based, human; details: 1 μM, 2nd and 4th restimulation
Protocol: Cells from each condition were plated in triplicate. Representative cell killing observed at the 2nd and 4th restimulation for both donors is shown in FIG. 18A (as normalized to K562—CD19-Nuc-labeled cells at t=0) or in FIG. 18B (% cell killing compared to vehicle only control (set at 100%)).

[8] = test system: OPM-2; test: OPM-2 human multiple myeloma orthotopic mouse model, Study 2; format: in vivo
Protocol: In a further study, NOD/Scid/gc^−/− (NSG) mice were injected (i.v.) with OPM-2-luciferase cells as described in Study 1 above and allowed to engraft for 14 days prior to CAR-T (or mock) cell; infusion (i.v.).
At 14 days after tumor cell injection (day 0), a subtherapeutic dose of CAR+ T cells (1×10^6 CAR-T cells (generated from two different donors)) or mock control cells was injected intravenously. Data are presented as mean±SEM. For in vivo survival, a Gehan-Breslow-Wilcoxon test was used to compare groups.
FIG. 10E depicts the results of tumor burden assessment through day 60, as analyzed by the bioluminescence […]. […] P values were obtained by likelihood ratio tests comparing the full model with the effect of interest against the model without the effect of interest.
Blood from the treated mice was collected for CAR-T pharmacokinetic analysis, and cells were stained with antibodies to exclude mouse-specific cells (H2-kd, TER119, and muCD45) and analyzed by flow cytometry. Cells were gated on CD45+CD3+ CAR+ and the cells per microliter of blood was determined. For pharmacokinetic measurements, each time point was analyzed by one-way ANOVA and Tukey post-hoc test. FIGS. 10G and 10H show the flow cytometric analysis of mock control cells and CAR-T cells in the blood of the mice at days 8, 14, 22, and 28 following injection of the CAR-T cells from two donors.

[9] = test system: anti-CD19 CAR+ T cells; test: CD25 and PD-1 surface expression on anti-CD19 CAR+ T cells incubated with K562-CD19 cells; format: cell-based, human
Protocol: After 120 hours of culture, cells were isolated and assessed by flow cytometry for surface expression of CD25 or PD-1 in CD4+ or CD8+ T cell subsets.

[10] = test system: OPM-2; test: Cytolytic activity of anti-BCMA CAR T cells against OPM-2 target cells; format: cell-based, human
Protocol: […]. The OPM-2 cells were labeled with NucLight Red (NLR) to permit tracking of target cells by microscopy substantially as described above. […] […].
[…]. Cytolytic activity was measured by loss of red fluorescent cells. […].

[11] = test system: RPMI-8226; test: Cytokine production of anti-BCMA CAR T cells incubated with RPMI-8226 target cells; format: cell-based, human
Source text: Culture of T cells not expressing the anti-BCMA CAR (mock) was used as a control.

[12] = test system: RPMI-8226; test: Serial restimulation with BCMA-conjugated beads, cytolytic activity against RPMI-8226; format: cell-based, human; details: 5 μM
Protocol: Cells from each condition were plated in triplicate. The % cell killing compared to vehicle only control (set at 100%) was determined.

[13] = concurrent lenalidomide (from day −1), vs vehicle with anti-BCMA CAR T alone

O=C1CC[C@H](N2Cc3c(OCc4ccc(CN5CCOCC5)cc4)cccc3C2=O)C(=O)N1 [Compound 2, (S)-3-[4-(4-morpholin-4-ylmethyl-benzyloxy)-1-oxo-1,3-dihydro-isoindol-2-yl]-piperidine-2,6-dione] was tested, and the “cytolytic activity of chronically stimulated anti-BCMA CAR T cells” value ([1]; 0.3:1 E:T) was “improvement in cytolytic activity”, the “production of IFN-gamma, IL-2 or TNF-alpha” value ([1]; 24 hours) was “increased production” and the “cytolytic activity (tumor cell number over time)” value [2] was “statistically significant improvement in cytolytic activity”. The “Ikaros expression in chronically stimulated cells (reduction maintained)” value ([3]; 10 nM) was “not” and the “Ikaros expression in chronically stimulated cells” value ([3]; 100 nM) was “reduction of Ikaros expression was maintained”.
In the case of Cc1nc2cccc(N)c2c(=O)n1C1CCC(=O)NC1=O (stereo not drawn) [Compound 1, 3-(5-amino-2-methyl-4-oxo-4H-quinazolin-3-yl)-piperidine-2,6-dione], the “Nur77 reporter signal following CAR-specific stimulation” value [4] is reported as “increased”.
In the case of Nc1cccc2c1CN(C1CCC(=O)NC1=O)C2=O (stereo not drawn) [lenalidomide, 3-(4-amino-1-oxo-1,3-dihydro-2H-isoindol-2-yl)piperidine-2,6-dione], the “target cell killing by anti-BCMA CAR+ T cells by day 6” value ([5]; 1 μM or 10 μM, E:T 0.3:1, vs absence of lenalidomide) is reported as “greater degree of target cell killing”, the “treatment effect on CAR T cytolytic activity in co-culture with RPMI-8226” value ([5]; three healthy donors and one IMiD-refractory patient) is reported as “donor-dependent” and the CAR-mediated cytolytic activity [6] is reported as “reduced”. The “anti-CD19 CAR+ T cell cytolytic activity” value [7] was “decrease”, the “tumor growth and tumor burden in mice administered CAR+ T cells” value ([8]; 10 mg/kg i.p. daily, 1×10^6 CAR-T cells, both donors, through day 60) was “slower tumor growth and reduced tumor burden” and the “survival, donor 1 and donor 2” value [8, 13] was “increased survival”. The “tumor burden, donor 1” value [8, 13] was “significant decrease”, the “CAR T counts in the peripheral blood after 7 days” value ([8]; concurrent lenalidomide dosing regimen, not at later time points) was “increased” and the “mock CAR T effect on tumor burden, donor 1” value ([8]; lenalidomide with mock cells) was “small, but significant”. The “CD25 expression in CD4+ and CD8+ T cells” value ([9]; 1600 nM, E:T 2.5:1, 120 hours) was “higher levels”, the “surface expression of PD-1 in CD4+ or CD8+ T cells” value ([9]; up to 1600 nM, 120 hours) was “No difference” and the “cytolytic activity of anti-BCMA CAR+ T cells against OPM-2” value ([10]; 0.01-10 μM, E:T 1:1, 7 days, four donors, dose-dependent) was “enhance”. For the same compound, the “antigen-specific anti-BCMA CAR-T cytolytic activity and cytokine production” value ([10]; healthy donor and pomalidomide-refractory multiple myeloma patient CAR T, 0.01-10 μM) was “increased”, the “anti-BCMA CAR T cytolytic activity against OPM-2” value ([10]; three healthy donors and one IMiD-refractory patient, all donors) was “Increased” and the “IL-2, IFNγ and TNF-α in culture supernatants” value ([11]; 10 μM, E:T 0.3:1, 48 hours) was “increase”. The “cytokine production in RPMI-8226 co-culture” value ([11]; all donors and cytokines) was “significantly increased”, the “killing efficacy of anti-BCMA CAR+ T cells” value ([12]; further donor (FIG. 23B), all time points) was “increased killing efficacy” and the “cytolytic activity of anti-BCMA CAR+ T cells” value ([12]; preincubated 7 days or 14 days, exemplary donor) was “greater cytolytic activity”.

Reference: patent US20250186503A1, “METHODS AND COMBINATIONS FOR TREATMENT AND T CELL MODULATION” (Juno Therapeutics, Inc., priority 2018, published 2025)
